In PMC4721142, “Randomized controlled studies on the efficacy of antiarthritic agents in inhibiting cartilage degeneration and pain associated with progression of osteoarthritis in the rat” (Arthritis Research & Therapy, 2016):
Several values for one entry are separate records, joined by “and”; a condition that tells them apart may be missing. Equal entries are not always repeated.

Tested on: MMT/MCLT rat model of OA
Experiment: MMT/MCLT trial 1 histopathology (same doses)
Format: in vivo
Parameters: key to Tibial cartilage degeneration score, 3-zone total: sum of three tibial zone scores (each on 5-point scale); key to Total joint score w/o femur / Total joint score / Total joint score without femur: sum: cartilage degeneration scores + mean osteophyte score
Settings: for % decrease, bone score / % decrease, femoral cartilage degeneration score / % decrease, osteophyte measure / % decrease, osteophyte score / % decrease, significant degeneration width / % decrease, tibial score 3-zone total / % decrease, tibial score zone 1 / % decrease, tibial score zone 2 / % decrease, tibial score zone 3 / % decrease, total degeneration width / % decrease, total joint score / % decrease, total joint score w/o femur / % decrease, depth ratio mean / % decrease, depth ratio zone 2: vs saline group
Source text: For MMT/MCLT rat knee joints, sections were cut in 200-μm steps; stained with toluidine blue (also with a right and left half per section); and similarly analyzed for cartilage degeneration, proteoglycan loss, collagen damage, and osteophyte formation. Results were averaged across the three sections for an overall semiquantitative score. Regional differences across the tibial plateau were taken into consideration by dividing each section into three zones delineated using an ocular micrometer (outside, middle, and inside). Scores were based on the percentage of area affected within the zone.
Cartilage degeneration in the tibia was scored on a 5-point scale as detailed in the Methods section of Additional file 1. The total extent of degeneration of the tibial plateau was measured (in micrometers) and included an analysis of cell loss, proteoglycan loss, and collagen damage. Significant cartilage degeneration reflecting any degeneration extending through more than 50 % of the cartilage thickness was also measured. Collagen damage across the medial tibial plateau (the most severely affected section of the two halves) was also quantified.
Osteophytes and femoral cartilage degeneration were analyzed as detailed in Additional file 1. Scoring of the osteophytes and categorization into small, medium, and large was performed using an ocular micrometer. The actual osteophyte measurement (tidemark to farthest distance point extending toward the synovium) was also recorded. The femoral cartilage degeneration score and the three-zone sum of the tibial cartilage degeneration scores (mean of three levels) were summed to create a total cartilage degeneration score. The mean osteophyte score for each joint was added to this value to create a total joint score. […]
Histopathology MMT/MCLT Model

[1] = mean, tacrolimus 0.6 mg/kg, fluocinolone 10 μg/kg
[2] = tacrolimus 0.6 mg/kg, fluocinolone 10 μg/kg

COc1cc(/C=C/C(=O)CC(=O)/C=C/c2ccc(O)c(OC)c2)ccc1O [Curcumin, Diferuloylmethane]
Bone score (mean, low or only dose): 3.13
Femoral cartilage degeneration score (mean, low or only dose): 2.21 and 2.21 ± 0.60
Tibial cartilage degeneration score, 3-zone total (mean, low or only dose): 6.50
Tibial cartilage degeneration score, zone 1 (mean, low or only dose): 4.08
Tibial cartilage degeneration score, zone 2 (mean, low or only dose): 2.38
Tibial cartilage degeneration score, zone 3 (mean, low or only dose): 0.04
Tibial cartilage degeneration width, significant (mean, low or only dose): 741.67 µm
Tibial cartilage degeneration width, total (mean, low or only dose): 1312.50 µm
Tibial osteophyte measure (mean, low or only dose): 592.92 µm
Tibial osteophyte score (mean, low or only dose): 4.25
Total joint score (mean, low or only dose): 12.96 and 12.96 ± 0.62
Total joint score w/o femur (mean, low or only dose): 10.75
% decrease, bone score (low or only dose): 4%
% decrease, femoral cartilage degeneration score (low or only dose): -20%
% decrease, osteophyte measure (low or only dose): -16%
% decrease, osteophyte score (low or only dose): -9%
% decrease, significant degeneration width (low or only dose): -2%
% decrease, tibial score 3-zone total (low or only dose): 1%
% decrease, tibial score zone 1 (low or only dose): 5%
% decrease, tibial score zone 2 (low or only dose): -8%
% decrease, tibial score zone 3 (low or only dose): 0%
% decrease, total degeneration width (low or only dose): 0%
% decrease, total joint score (low or only dose): -5%
% decrease, total joint score w/o femur (low or only dose): -3%

C=CC[C@@H]1/C=C(\C)C[C@H](C)C[C@H](OC)[C@H]2O[C@@](O)(C(=O)C(=O)N3CCCC[C@H]3C(=O)O[C@H](/C(C)=C/[C@@H]3CC[C@@H](O)[C@H](OC)C3)[C@H](C)[C@@H](O)CC1=O)[C@H](C)C[C@@H]2OC [Tacrolimus]
Bone score (mean, low or only dose): 2.63
Depth ratio any matrix change, mean (mean, low or only dose): 0.26
Depth ratio any matrix change, zone 2 (mean, low or only dose): 0.07
Tibial cartilage degeneration score, 3-zone total (mean, low or only dose): 4.25
Tibial cartilage degeneration score, zone 1 (mean, low or only dose): 2.75
Tibial cartilage degeneration score, zone 2 (mean, low or only dose): 1.50
Tibial cartilage degeneration score, zone 3 (mean, low or only dose): 0.00
Tibial cartilage degeneration width, significant (mean, low or only dose): 441.67 µm
Tibial cartilage degeneration width, total (mean, low or only dose): 1137.50 µm
Tibial osteophyte measure (mean, low or only dose): 370.83 µm
Tibial osteophyte score (mean, low or only dose): 2.38
Total joint score w/o femur (mean, low or only dose): 6.63
Bone score [1]: 3.00
Depth ratio any matrix change, mean [1]: 0.22
Depth ratio any matrix change, zone 2 [1]: 0.02
Tibial cartilage degeneration score, 3-zone total [1]: 3.63
Tibial cartilage degeneration score, zone 1 [1]: 2.42
Tibial cartilage degeneration score, zone 2 [1]: 1.21
Tibial cartilage degeneration score, zone 3 [1]: 0.00
Tibial cartilage degeneration width, significant [1]: 325.00 μm
Tibial cartilage degeneration width, total [1]: 945.83 μm
Tibial osteophyte measure [1]: 370.00 μm
Tibial osteophyte score [1]: 2.38
Total joint score w/o femur [1]: 6.00
% decrease, combined width severe+marked (tacrolimus 0.3 mg/kg): 86%
% decrease, combined width severe+marked+moderate (tacrolimus 0.3 mg/kg): 88%
% decrease, combined width severe+marked+moderate+mild (tacrolimus 0.3 mg/kg): 33%
% decrease, width of moderate collagen degeneration (tacrolimus 0.3 mg/kg): 91%
% decrease, width of severe collagen degeneration (tacrolimus 0.3 mg/kg): 97%
% increase, area of any cartilage matrix (tacrolimus 0.3 mg/kg): 59%
% increase, area of viable cartilage matrix (tacrolimus 0.3 mg/kg, fluocinolone 5 ug/kg): 26%
% decrease, combined width severe+marked (tacrolimus 0.6 mg/kg): 99%
% decrease, combined width severe+marked+moderate (tacrolimus 0.6 mg/kg): 96%
% decrease, combined width severe+marked+moderate+mild (tacrolimus 0.6 mg/kg): 53%
% decrease, width of marked collagen degeneration (tacrolimus 0.6 mg/kg): 97%
% decrease, width of severe collagen degeneration (tacrolimus 0.6 mg/kg): 100%
% decrease, width of total collagen degeneration (tacrolimus 0.6 mg/kg): 19%
% increase, area of any cartilage matrix (tacrolimus 0.6 mg/kg): 69%
% increase, width of normal collagen (tacrolimus 0.6 mg/kg): 19%
% increase, area of viable cartilage matrix (tacrolimus 0.6 mg/kg, fluocinolone 10 ug/kg): 33%
% decrease, bone score (low or only dose): 19%
% decrease, depth ratio mean (low or only dose): 29%
% decrease, depth ratio zone 2 (low or only dose): 59%
% decrease, femoral cartilage degeneration score (low or only dose): 73%
% decrease, osteophyte measure (low or only dose): 28%
% decrease, osteophyte score (low or only dose): 39%
% decrease, significant degeneration width (low or only dose): 39%
% decrease, tibial score 3-zone total (low or only dose): 35%
% decrease, tibial score zone 1 (low or only dose): 36%
% decrease, tibial score zone 2 (low or only dose): 32%
% decrease, tibial score zone 3 (low or only dose): 100%
% decrease, total degeneration width (low or only dose): 13%
% decrease, total joint score (low or only dose): 42%
% decrease, total joint score w/o femur (low or only dose): 37%
% decrease, bone score [2]: 8%
% decrease, depth ratio mean [2]: 40%
% decrease, depth ratio zone 2 [2]: 87%
% decrease, femoral cartilage degeneration score [2]: 48%
% decrease, osteophyte measure [2]: 28%
% decrease, osteophyte score [2]: 39%
% decrease, significant degeneration width [2]: 55%
% decrease, tibial score 3-zone total [2]: 45%
% decrease, tibial score zone 1 [2]: 44%
% decrease, tibial score zone 2 [2]: 45%
% decrease, tibial score zone 3 [2]: 100%
% decrease, total degeneration width [2]: 28%
% decrease, total joint score [2]: 43%
% decrease, total joint score w/o femur [2]: 43%
